Experiments:
[1] = test system: Tryptophan aptamer, Light-up construct (RNA, aptamer) GGGAACGUCUCCGAGUAGGAGACGAAGGGAGAGUGGCAGCUUACAAACUACAGUUGCGGCCGCCACUGCGAAGGACGGGUCCCUCGAAAGAGGUUGAGUAGAGUGUGAGCGCAGGACCGGGCAACAGUAGUAAGUGGGCUGUUGCUUUUCCAAGCUUAUCGAGUAGAUAAGCAAAAAGAAACAACAACAACAAC; test: DMS chemical mapping; details: 5 mM MgCl2, 1x PBS, pH 6.1, 24 °C
[2] = test system: Tryptophan aptamer, RNA-MaP condition construct (RNA, aptamer) GGAAAGGCGAGCGGCCGCCACUGUUCGCAGGACCGGGCUCGCCAAAGAAACAACAACAACAAC; test: DMS chemical mapping; details: 80 mM KCl, 4 mM MgCl2; 100 mM Tris-HCl, pH 7.5, 37 °C
[3] = test system: BH_E029 (RNA, aptamer) GGGAGAGUGGCAGCUUACAACGUAACGAUGCGGCCGCCACUGAUCCGACUGGUUAACAGAAAGUCCUGACCAGGUAACGAAUGGUCAGGACCGGGCAUUGUUACGAAGUGGGCUGUUGCUUUUCC; test: light-up fluorescence kinetics (malachite green); details: 5 mM MgCl2, 1x PBS, pH 6.1, 2.4 mM Trp with malachite green present
[4] = biological target: T1, MS2 coat protein, dlFG mutant (Escherichia phage MS2, UniProt P03612, del68-81insG); test: 4 mM Mg2+; FMN 200 uM; RNA-MaP array; 100 mM Tris-HCl pH 7.5, 80 mM KCl, 4 mM MgCl2, 0.1 mg/mL BSA, 1 mM DTT, 0.01 mg/mL yeast tRNA, 0.01% Tween-20; protein 1.5 nM to 3 uM; 37 C (Table S3); details: chain copies: 2; label: tethered by stalled RNA polymerase
[5] = biological target: T1, MS2 coat protein, dlFG mutant; test: 4 mM Mg2+; theophylline 2 mM; RNA-MaP array; 100 mM Tris-HCl pH 7.5, 80 mM KCl, 4 mM MgCl2, 0.1 mg/mL BSA, 1 mM DTT, 0.01 mg/mL yeast tRNA, 0.01% Tween-20; protein 1.5 nM to 3 uM; 37 C (Table S3); details: chain copies: 2; label: tethered by stalled RNA polymerase

`N[C@@H](Cc1c[nH]c2ccccc12)C(=O)O` was tested, and the Kd [1] was 11.59 ± 9.49/-5.00 μM, the Kd [2] was 12.09 ± 10.50/-5.19 μM and the binding [3] was “yes”.

B1: Eterna 6103763 (Same State NG 3) (ssRNA)
RNA: CAUUGACGACAAUUACAUGAGGAUCACCCAUGUUUUGGGAUGCAGGAUAUGUGGUAUAUUAAUUAACAGAAGGGCAAUAAUUUU
With B1 the Kd [4] was 35.5 nM.

B2: Eterna 7646211 (Same State - Theophylline A) (ssRNA)
RNA: CAUACUUUAGUAUGUAAUGUGGACAGUGAUACCAGAUACGAAAGUAUCCCUUGGCAGCACAACAUGAGGAUCACCCAUGUAUUUU
In the case of B2, the Kd [5] is reported as 13.4 nM.

From publication PMC9170038
